Assay results reported in patent US7049292B2, “Therapeutically effective peptides related to preproinsulin” (King's College London, priority 2004, dated 2006).
“And” between values parts separate entries of the source, which are not always exact repeats. Identical values can stand only once. Like-named read-outs stand apart in the source and are kept apart here.

Assays:
[1] = system: anti-inflammatory (IL-10 secreting) CD4+ T lymphocytes in PBMCs; type: cell-based, human; details: for IL-10 response, stimulation index (SI): PBMCs, peptide 10 μM
[2] = system: pathogenic (IFN-γ) CD4+ T lymphocytes in PBMCs; assay: IFN-γ ELISPOT analysis of PBMCs cultured with peptide; type: cell-based, human; details: for Prevalence of IFN-γ responses, Totals (%) / Prevalence of IFN-γ responses, Totals (responders/tested): positive response SI≧3.0; for IFN-γ response, stimulation index (SI): PBMCs, peptide 10 μM
[3] = patient #5, T1DM with HLA-DR4 alleles
[4] = patient #24, T1DM with HLA-DR4 alleles
[5] = T1DM patients with HLA-DR4 alleles
[6] = T1DM patients with non-DR4 alleles
[7] = patient #6, T1DM with HLA-DR4 alleles

Sequence: LAKEWQALCAYQAEPNTCATAQGEGNIK [709–36, IA-2 peptide eluted from HLA-DR4]
- Prevalence of IL-10 responses, Totals (responders/tested) [1]: 2/17 and 1/7
- IL-10 response, stimulation index (SI) ([1]; non-diabetic control subject C4): 3.6
- IL-10 response, stimulation index (SI) ([1]; non-diabetic control subject C6): 3.2
- IL-10 response, stimulation index (SI) ([1]; non-diabetic control subject C13): 3.8
- Prevalence of IL-10 responses, Totals (responders/tested) ([1]; non-diabetic control subjects, positive response SI≧3.0): 3/14
- IL-10 response, stimulation index (SI) [1, 3]: 3.5
- IL-10 response, stimulation index (SI) [1, 4]: 9.0
- IL-10 response, stimulation index (SI) ([1]; patient #27, T1DM with non-DR4 alleles): 7.0
- Prevalence of IFN-γ responses, Totals (%) [2, 5]: (12) %
- Prevalence of IFN-γ responses, Totals (responders/tested) [2, 5]: 3/25
- Prevalence of IFN-γ responses, Totals (%) [2, 6]: (0) %
- Prevalence of IFN-γ responses, Totals (responders/tested) [2, 6]: 0/11
- Prevalence of IFN-γ responses, Totals (%) ([2]; non-diabetic control subjects): (0) %
- Prevalence of IFN-γ responses, Totals (responders/tested) ([2]; non-diabetic control subjects): 0/14
- IFN-γ response, stimulation index (SI) [2, 7]: 9.2
- IFN-γ response, stimulation index (SI) ([2]; patient #19, T1DM with HLA-DR4 alleles): 5.0
- IFN-γ response, stimulation index (SI) [2, 4]: 10.5

Sequence: GGGPGAGSLQPLALEGSLQK [C13-C32, preproinsulin peptide, residues C13-C32]
- Prevalence of IL-10 responses, Totals (responders/tested) ([1]; listed as C13–32): 1/12 and 1/5 and 1/13
- Prevalence of IFN-γ responses, Totals (%) [2, 5]: (12) %
- Prevalence of IFN-γ responses, Totals (responders/tested) [2, 5]: 2/17
- Prevalence of IFN-γ responses, Totals (%) [2, 6]: (25) %
- Prevalence of IFN-γ responses, Totals (responders/tested) [2, 6]: 2/8
- Prevalence of IFN-γ responses, Totals (%) ([2]; non-diabetic control subjects): (0) %
- Prevalence of IFN-γ responses, Totals (responders/tested) ([2]; non-diabetic control subjects): 0/14
- IFN-γ response, stimulation index (SI) [2, 3]: 3.8
- IFN-γ response, stimulation index (SI) [2, 7]: 8.6
- IFN-γ response, stimulation index (SI) ([2]; patient #28, T1DM with non-DR4 alleles): 11.5
- IFN-γ response, stimulation index (SI) ([2]; patient #29, T1DM with non-DR4 alleles): 4.7
